# Measured values from PMC6375640, “Genomic insights into neonicotinoid sensitivity in the solitary bee Osmia bicornis” (PLoS Genetics, 2019).
# Experiments:
# O. bicornis [1] = test: Acute contact toxicity bioassay; assay type: in vivo, Osmia bicornis; settings: for LD50: acute contact, applied to dorsal thorax, thiacloprid limit test 100 μg/bee; for toxicity classification according to U.S. EPA categories: contact exposure
# Procedure: O. bicornis cocoons were purchased from Dr Schubert Plant Breeding (Landsberg, Germany) and stored at 4°C in constant darkness. To trigger emergence cocoons were transferred to an incubator (25°C, 55% RH, L16:D8) with emerged bees fed ab libitum with Biogluc (62% sugar concentration consisting of 37.5% fructose, 34.5% glucose, 25% sucrose, 2% maltose, and 1% oligosaccharides) (Biobest), soaked into a piece of cotton wool inside a plastic dish. Males (which are usually first to emerge) were removed from cages and discarded to reduce any unnecessary stress to the females used in insecticide bioassays.
# (§1) Acute contact toxicity bioassays on unmated 2 day old female O. bicornis were conducted following the OECD Honey Bee Test guidelines, with modification where necessary. Bees were anaesthetised with CO2 for 5–10 seconds to allow application of insecticide. 1 μL of technical grade imidacloprid was applied to the dorsal thorax of each bee at concentrations of 0.0001, 0.001, 0.01, 0.1, 1, and 10 μg/μL. No mortality was observed using the same concentrations of thiacloprid so a limit test of 100 μg/bee was performed. Control bees were treated with 1 μL 100% acetone. Three replicates of 10 bees were tested for each concentration. Tested individuals were placed back into cages in the incubator (25°C, 55% RH, L16:D8), with five bees per cage. In piperonyl butoxide (PBO) synergist bioassays, bees were first treated with the maximum sublethal dose (in this case 100 μg/μL) of PBO followed by insecticide one hour later. Synergist bioassays included an additional control group treated only with PBO. Mortality was assessed 48 and 72 hours after application. Probit analysis was used to calculate the LD50 values, slope, and synergism ratio (where relevant) for each insecticide (Genstat v.18 (VSNI 2015)).
# [2] = system: transgenic Drosophila melanogaster expressing CYP9BU2; test: Insecticide bioassay on transgenic flies expressing CYP9BU2; assay type: in vivo; settings: for RR (resistance ratio): CYP9BU2 strain vs control line; for sensitivity relative to control flies: flies expressing CYP9BU2 vs control flies without transgene
# Procedure: (§2) CYP9BU1 and CYP9BU2 were codon optimised for D. melanogaster expression and cloned into the pUASTattB plasmid (GenBank: EF362409.1). These constructs were used to create transgenic fly lines, which were then tested in insecticide bioassays against imidacloprid and thiacloprid, as described previously.
# CYP9BU2 [3] = test: as above; assay type: in vivo, Drosophila melanogaster; settings: transgenic line expressing CYP9BU2, Drosophila melanogaster, in vivo; CYP9BU2 strain
# Procedure: as §2
# CYP9BU2 [4] = test: Metabolism assay with recombinant P450/CPR microsomes, UPLC-MS/MS; settings: for metabolism to 5-hydroxy form: 25 μM insecticide, 5 pmol P450, NADPH, 1 hour, 30°C
# Source text: (§3) O. bicornis P450 genes and house fly NADPH-dependent cytochrome P450 reductase (CPR) (GenBank accession no. Q07994) genes were codon optimised for expression in lepidopteran cell lines, synthesized (Geneart, CA, USA) and inserted into the pDEST8 expression vector (Invitrogen). The PFastbac1 vector with no inserted DNA was used to produce a control virus. The recombinant baculovirus DNA was constructed and transfected into Trichoplusia ni (High five cells, Thermo Fisher) using the Bac-to-Bac baculovirus expression system (Invitrogen) according to the manufacturer’s instructions. The titre of the recombinant virus was determined following protocols of the supplier. High Five cells grown to a density of 2 x 10^6 cells ml^-1 were co-infected with recombinant baculoviruses containing each bee P450 and CPR with a range of MOI (multiplicity of infection) ratios to identify the optimal conditions. Control cells were co-infected with the baculovirus containing vector with no insert (ctrl-virus) and the recombinant baculovirus expressing CPR using the same MOI ratios. Ferric citrate and δ-aminolevulinic acid hydrochloride were added to a final concentration of 0.1 mM at the time of infection and 24 h after infection to compensate the low levels of endogenous heme in the insect cells. After 48 h, cells were harvested, washed with PBS, and microsomes of the membrane fraction prepared according to standard procedures and stored at −80°C [41]. Briefly, pellets were homogenised for 30 s in 0.1 M Na/K-phosphate buffer, pH 7.4 containing 1 mM EDTA and DTT and 200 mM sucrose using a Fastprep (MP Biomedicals), filtered through miracloth and centrifuged for 10 min at 680g at 4°C. The supernatant was then centrifuged for 1 h at 100,000g at 4°C, with the pellet subsequently resuspended in 0.1M Na/K-phosphate buffer pH 7.6 containing 1 mM EDTA and DTT and 10% glycerol using a Dounce tissue grinder. P450 expression and functionality was estimated by measuring CO-difference spectra in reduced samples using a Specord 200 Plus Spectrophotometer (Analytik Jena) and scanning from 500 nm to 400 nm. The protein content of samples was determined using Bradford reagent (Sigma) and bovine serum albumin (BSA) as a reference.
# (§4) Metabolism of thiacloprid and imidacloprid was assessed by incubating recombinant P450/CPR (5 pmol/well) or control virus/CPR (5 pmol/well) with each insecticide (25 μM) in the presence of an NADPH regeneration system at 30±1°C, shaking, for 1 hour. […] The peak integrals were calibrated externally against a standard calibration curve.
# CYP9BU1 [5] = test: as above; settings: for metabolism to 5-hydroxy form: 25 μM insecticide, 5 pmol P450, NADPH, 1 hour, 30°C
# Source text: as §3, §4
# [6] = system: transgenic Drosophila melanogaster expressing CYP9BU1; test: Insecticide bioassay on transgenic flies expressing CYP9BU1; assay type: in vivo; settings: for RR (resistance ratio): CYP9BU1 strain vs control line; for sensitivity relative to control flies (less sensitive): flies expressing CYP9BU1 vs control flies without transgene
# Procedure: as §2
# CYP9BU1 [7] = test: as above; assay type: in vivo, Drosophila melanogaster; settings: transgenic line expressing CYP9BU1, Drosophila melanogaster, in vivo; CYP9BU1 strain
# Procedure: as §2
# O. bicornis nAChRs = test: Radioligand competition binding, [3H]imidacloprid displacement from head membrane preparations; set-up: species or system Osmia bicornis; settings: 576 pM radioligand, 60 min room temperature
# Procedure: [^3H]imidacloprid (specific activity 1.406 GBq μmol^−1) displacement studies were conducted using membrane preparations isolated from frozen (−80°C) O. bicornis heads, following previously published protocols. Briefly, bee heads weighing 10 g were homogenized in 200 ml ice-cold 0.1 M potassium phosphate buffer, pH 7.4 containing 95 mM sucrose using a motor-driven Ultra Turrax blender. […] Assays were performed in a 96-well microtitre plate with bonded GF/C filter membrane (Packard UniFilter-96, GF/C) and consisted of 200 μl of homogenate (0.48 mg protein), 25 μl of [^3H]imidacloprid (576 pM) and 25 μl of competing ligand. Ligand concentrations used ranged from 0.001 to 10 000 nM and were tested in triplicate per competition assay. The assay was started by the addition of homogenate and incubated for 60 min at room temperature. Bound [^3H]imidacloprid was quantified by filtration into a second 96-well filter plate (conditioned with ice-cold 100 mM potassium phosphate buffer, pH 7.4 (including BSA 5 g litre−1)) using a commercial cell harvester (Brandel). […] Each well was then loaded with 25 μl of scintillation cocktail (Microszint-O-Filtercount, Packard) and the plate counted in a Topcount scintillation counter (Packard). Non-specific binding was determined using a final concentration of 10 μM unlabelled imidacloprid. […]
# O. bicornis cuticle = test: Cuticular penetration of radiolabelled insecticide (pharmacokinetic study); assay type: in vivo, Osmia bicornis; settings: 24 h after application to dorsal thorax
# Procedure: Bees were anaesthetised with CO2 for 5–10 seconds to allow application of insecticide. 5,000 ppm of [^14C]imidacloprid or [^14C]thiacloprid was applied to the dorsal thorax of each bee using a Hamilton repeating dispenser. Three replicates of five bees were placed into cages and fed a 50% sucrose solution from vertically hanging 2 ml syringes. Control bees were treated with acetone. Radiolabelled insecticide was rinsed off of each group of bees at set time intervals (0, 2, 4 and 24 hours after application) with acetonitrile water (90:10) three times. The […] bees were then individually combusted at 900°C in an Ox 120c oxidizer (Harvey Instruments Co., USA) followed by liquid scintillation counting of the released ^14CO2 in an alkaline scintillation cocktail (Ultima Gold, PerkinElmer) using a liquid scintillation analyser (Perkin Elmer Tri-Carb 2910 TR). The levels of excreted [^14C]imidacloprid or [^14C]thiacloprid, and/or metabolites, were measured by wiping cages with filter papers dipped in acetone and 0.5 mL aliquots of cuticular rinse or filter papers were added to 3 mL of scintillation fluid cocktail and the radioactivity was quantified by liquid scintillation analysis as above. An unpaired t-test was used to compare the penetration of the two compounds at each time point.
# [8] = system: adult female O. bicornis gene expression; test: RNAseq of bees after sublethal oral neonicotinoid exposure (P450 induction); assay type: in vivo, Osmia bicornis; settings: for induction of P450 expression: 24 h after exposure to LD10; for number of genes significantly upregulated: 24 h after exposure to LD10, corrected p <0.05 vs solvent control
# Procedure: (§5) To examine if P450 expression in O. bicornis is induced by exposure to sublethal concentrations of neonicotinoids, imidacloprid and thiacloprid were dissolved in acetone to the highest concentration possible, before being diluted to the LD10 of imidacloprid (0.0001 μg/bee) and thiacloprid (0.01 μg/bee) with 50% sucrose (w/v) in order to limit the amount of acetone consumed by bees. Prior to commencing oral bioassays bees underwent a 24 hour ‘training’ period in the Nicot cages to enable them to learn to feed from the syringes. This was followed by a 16h starvation period to encourage subsequent feeding. 15μL of the insecticide/sucrose solution was supplied orally to the bees in disposable plastic syringes. Control bees were fed 15μL of a sucrose solution containing the same volume of acetone used to make up the insecticide/sucrose solutions. When all of the solution had been consumed the bees were fed ab libitum with a 50% sucrose solution for 24 h. After this period for each condition four replicates comprising 5 bees per replicate were snap frozen in liquid nitrogen and RNA extracted from each replicate as above. RNA was used as a template for the generation of barcoded libraries (TrueSeq RNA library preparation, Illumina) which were sequenced across two lanes of an Illumina HiSeq2500 flowcell (100 bp paired end reads). Sequencing was carried out by Earlham Institute, Norwich, UK. To identify genes differentially expressed between control and the treatment the Tuxedo workflow was used to map with TopHat against the annotated reference genome, to estimate gene expression with Cufflinks and test for differential expression with Cuffdiff.
# O. bicornis [9] = test: Sublethal dose (LD10) used for oral exposure; assay type: in vivo, Osmia bicornis; settings: used as sublethal dose, supplied orally in 50% sucrose
# Procedure: as §5, with “To identify genes differentially expressed between control and the treatment the Tuxedo workflow was used to map with TopHat against the annotated reference genome, to estimate gene expression with Cufflinks and test for differential expression with Cuffdiff.” left out
# O. bicornis [10] = test: PBO (piperonyl butoxide) synergist bioassay; assay type: in vivo, Osmia bicornis; settings: with vs without PBO pre-treatment one hour before insecticide
# Procedure: as §1
# in vivo = settings: in vivo; Control strain
# Procedure: as §2
# [11] = system: Drosophila melanogaster control line; test: in vivo; settings: for RR (resistance ratio): Control strain (reference); for Slope (+/- SE): log-dose probit mortality, Control strain
# Procedure: as §2
# [12] = production of hydroxy metabolite per pmol P450
SMILES,LD50 (O. bicornis [1]; adult female bees),toxicity classification according to U.S. EPA categories (O. bicornis [1]),RR (resistance ratio) [2],sensitivity relative to control flies [2],LC50 (CYP9BU2 [3]),metabolism to 5-hydroxy form (CYP9BU2 [4]),metabolism to 5-hydroxy form (CYP9BU1 [5]),RR (resistance ratio) [6],sensitivity relative to control flies (less sensitive) [6],LC50 (CYP9BU1 [7]),IC50 (O. bicornis nAChRs),final uptake through the cuticle (O. bicornis cuticle),induction of P450 expression [8],number of genes significantly upregulated [8],LD10 (O. bicornis [9]),change in sensitivity after PBO pre-treatment (O. bicornis [10]),LC50 (in vivo),RR (resistance ratio) [11],Slope (+/- SE) [11],further results
N#C/N=C1\SCCN1Cc1ccc(Cl)nc1 [thiacloprid],> 100 μg/bee,practically non-toxic,1.1,no significant resistance,17.5 µg/mL,metabolise these compounds to their hydroxylated forms,metabolise these compounds to their hydroxylated forms,3.8,~ 4 times,65.7 µg/mL,2.4 nM,28%,no P450 showed a significant increase in expression,16 genes,0.01 μg/bee,> 7 fold,17 µg/mL,1,1.2 +/- 0.14,"mortality (O. bicornis [1]; 1 μL at 0.0001-10 μg/μL, contact): No mortality; efficiency of metabolism relative to imidacloprid (CYP9BU2 [4]; [12]): significantly greater efficiency than imidacloprid; efficiency of metabolism relative to imidacloprid (CYP9BU1 [5]; [12]): significantly greater efficiency than imidacloprid"
O=[N+]([O-])NC1=NCCN1Cc1ccc(Cl)nc1 [imidacloprid],0.046 μg/bee,highly toxic,0.8,no significant differences in sensitivity,135 µg/mL,metabolise these compounds to their hydroxylated forms,metabolise these compounds to their hydroxylated forms,0.5,no significant differences in sensitivity,85.9 µg/mL,8.3 nM,27%,no P450 showed a significant increase in expression,27 genes,0.0001 μg/bee,No significant difference,165 µg/mL,1,1.7 +/- 0.12,"fold more sensitive to imidacloprid than thiacloprid (O. bicornis [1]; adult female bees, ratio of contact LD50): > 2,000 fold; Slope (+/- SE) ([2]; log-dose probit mortality, CYP9BU2 strain): 1.5 +/- 0.14; Slope (+/- SE) ([6]; log-dose probit mortality, CYP9BU1 strain): 1.3 +/- 0.13"
